Assay results as given in patent US8791145B2, “Agricultural formulations with acyl morpholines and polar aprotic co-solvents” (Akzo Nobel Chemicals International B.V., priority 2010, dated 2014).

What was measured:
[1] = Solubility in acyl morpholines; type: physicochemical; details: 23° C.
Procedure: Various agriculturally active ingredients were dissolved in N-formyl morpholine, N-acetyl morpholine and N-propionyl morpholine in order to evaluate the solubility of the active ingredients in the solvents. This was done by adding the active ingredient to a beaker and thereafter adding the solvent until a clear solution was obtained. The solutions were continually stirred at a temperature of 23° C. during the experiments. When everything had been dissolved, the beakers were left without stirring for 24 h to see if the solution was stable (i.e. no crystallization).

[2] = Dilution of Imidacloprid formulation in water, ocular inspection; type: physicochemical; set-up: key: +: easily dissolved; −: permanent crystals; NS: Non soluble; details: 200 g/l diluted to 0.4 g/l
Source text: Formulations containing 200 g/l of Imidacloprid was formulated together with 40 g/l of an alcohol ethoxylate (2-propylheptanol ethoxylated with 8 moles of EO per mole of alcohol) and diluted to a final volume of one liter with each one of the solvents N-formyl morpholine, N-acetyl morpholine and N-propionyl morpholine along with a co-solvent. The co-solvents used were dimethylsulfoxide (DMSO), propylene carbonate (PC), dimethylformamide (DMF) and ethyl lactate (EL). Ethyl lactate is a protic solvent and is included in the experiment for comparison. The amount of each co-solvent, in % by weight of the total weight of morpholine and co-solvent, is seen in table 2. The solutions was diluted in water to an end concentration of imidacloprid of 0.4 g/l and the dilution was judged by ocular inspection with the naked eye, and in the table below, the following is used: • +: easily dissolved, • −: permanent crystals. • NS: Non soluble

[3] = Literature value from Adjuvant Newsletter; cited from earlier work

O=[N+]([O-])NC1=NCCN1Cc1ccc(Cl)nc1 [Imidacloprid]
Dissolution of active ingredient into N-acetyl morpholine (NAM) ([1]; NAM): 26 grams of active ingredient in 100 g solvent | Dissolution of active ingredient into N-formyl morpholine (NFM) ([1]; NFM): 30 grams of active ingredient in 100 g solvent | Dissolution of active ingredient into N-propionyl morpholine (NPM) ([1]; NPM): 19 grams of active ingredient in 100 g solvent | Crystallization upon dilution in water ([2]; NAM, 0% DMF): − | Crystallization upon dilution in water ([2]; NAM, 0% DMSO): − | Crystallization upon dilution in water ([2]; NAM, 0% EL): − | Crystallization upon dilution in water ([2]; NAM, 0% PC): − | Crystallization upon dilution in water ([2]; NAM, 5% DMF): − | Crystallization upon dilution in water ([2]; NAM, 5% DMSO): − | Crystallization upon dilution in water ([2]; NAM, 5% EL): − | Crystallization upon dilution in water ([2]; NAM, 5% PC): − | Crystallization upon dilution in water ([2]; NAM, 10% DMF): − | Crystallization upon dilution in water ([2]; NAM, 10% DMSO): − | Crystallization upon dilution in water ([2]; NAM, 10% EL): NS | Crystallization upon dilution in water ([2]; NAM, 10% PC): − | Crystallization upon dilution in water ([2]; NAM, 15% DMF): − | Crystallization upon dilution in water ([2]; NAM, 15% DMSO): + | Crystallization upon dilution in water ([2]; NAM, 15% EL): NS | Crystallization upon dilution in water ([2]; NAM, 15% PC): − | Crystallization upon dilution in water ([2]; NAM, 20% DMF): + | Crystallization upon dilution in water ([2]; NAM, 20% DMSO): + | Crystallization upon dilution in water ([2]; NAM, 20% EL): NS | Crystallization upon dilution in water ([2]; NAM, 20% PC): NS | Crystallization upon dilution in water ([2]; NAM, 25% DMF): + | Crystallization upon dilution in water ([2]; NAM, 25% DMSO): + | Crystallization upon dilution in water ([2]; NAM, 25% EL): NS | Crystallization upon dilution in water ([2]; NAM, 25% PC): NS | Crystallization upon dilution in water ([2]; NAM, 30% DMF): + | Crystallization upon dilution in water ([2]; NAM, 30% DMSO): + | Crystallization upon dilution in water ([2]; NAM, 30% EL): NS | Crystallization upon dilution in water ([2]; NAM, 30% PC): NS | Crystallization upon dilution in water ([2]; NAM, 50% DMF): + | Crystallization upon dilution in water ([2]; NAM, 50% DMSO): + | Crystallization upon dilution in water ([2]; NAM, 50% EL): NS | Crystallization upon dilution in water ([2]; NAM, 50% PC): NS | Crystallization upon dilution in water ([2]; NAM, 95% DMF): + | Crystallization upon dilution in water ([2]; NAM, 95% DMSO): + | Crystallization upon dilution in water ([2]; NAM, 95% EL): NS | Crystallization upon dilution in water ([2]; NAM, 95% PC): NS | Crystallization upon dilution in water ([2]; NFM, 0% DMF): − | Crystallization upon dilution in water ([2]; NFM, 0% DMSO): − | Crystallization upon dilution in water ([2]; NFM, 0% EL): − | Crystallization upon dilution in water ([2]; NFM, 0% PC): − | Crystallization upon dilution in water ([2]; NFM, 5% DMF): − | Crystallization upon dilution in water ([2]; NFM, 5% DMSO): − | Crystallization upon dilution in water ([2]; NFM, 5% EL): − | Crystallization upon dilution in water ([2]; NFM, 5% PC): − | Crystallization upon dilution in water ([2]; NFM, 10% DMF): − | Crystallization upon dilution in water ([2]; NFM, 10% DMSO): + | Crystallization upon dilution in water ([2]; NFM, 10% EL): NS | Crystallization upon dilution in water ([2]; NFM, 10% PC): − | Crystallization upon dilution in water ([2]; NFM, 15% DMF): + | Crystallization upon dilution in water ([2]; NFM, 15% DMSO): + | Crystallization upon dilution in water ([2]; NFM, 15% EL): NS | Crystallization upon dilution in water ([2]; NFM, 15% PC): + | Crystallization upon dilution in water ([2]; NFM, 20% DMF): + | Crystallization upon dilution in water ([2]; NFM, 20% DMSO): + | Crystallization upon dilution in water ([2]; NFM, 20% EL): NS | Crystallization upon dilution in water ([2]; NFM, 20% PC): + | Crystallization upon dilution in water ([2]; NFM, 25% DMF): + | Crystallization upon dilution in water ([2]; NFM, 25% DMSO): + | Crystallization upon dilution in water ([2]; NFM, 25% EL): NS | Crystallization upon dilution in water ([2]; NFM, 25% PC): + | Crystallization upon dilution in water ([2]; NFM, 30% DMF): + | Crystallization upon dilution in water ([2]; NFM, 30% DMSO): + | Crystallization upon dilution in water ([2]; NFM, 30% EL): NS | Crystallization upon dilution in water ([2]; NFM, 30% PC): NS | Crystallization upon dilution in water ([2]; NFM, 50% DMF): + | Crystallization upon dilution in water ([2]; NFM, 50% DMSO): + | Crystallization upon dilution in water ([2]; NFM, 50% EL): NS | Crystallization upon dilution in water ([2]; NFM, 50% PC): NS | Crystallization upon dilution in water ([2]; NFM, 95% DMF): + | Crystallization upon dilution in water ([2]; NFM, 95% DMSO): + | Crystallization upon dilution in water ([2]; NFM, 95% EL): NS | Crystallization upon dilution in water ([2]; NFM, 95% PC): NS | Crystallization upon dilution in water ([2]; NPM, 0% DMF): − | Crystallization upon dilution in water ([2]; NPM, 0% DMSO): − | Crystallization upon dilution in water ([2]; NPM, 0% PC): − | Crystallization upon dilution in water ([2]; NPM, 5% DMF): NS | Crystallization upon dilution in water ([2]; NPM, 5% DMSO): NS | Crystallization upon dilution in water ([2]; NPM, 5% PC): NS | Crystallization upon dilution in water ([2]; NPM, 10% DMF): NS | Crystallization upon dilution in water ([2]; NPM, 10% DMSO): NS | Crystallization upon dilution in water ([2]; NPM, 10% PC): NS | Crystallization upon dilution in water ([2]; NPM, 15% DMF): NS | Crystallization upon dilution in water ([2]; NPM, 15% DMSO): NS | Crystallization upon dilution in water ([2]; NPM, 15% PC): NS | Crystallization upon dilution in water ([2]; NPM, 20% DMF): NS | Crystallization upon dilution in water ([2]; NPM, 20% DMSO): NS | Crystallization upon dilution in water ([2]; NPM, 20% PC): NS | Crystallization upon dilution in water ([2]; NPM, 25% DMF): NS | Crystallization upon dilution in water ([2]; NPM, 25% DMSO): − | Crystallization upon dilution in water ([2]; NPM, 25% PC): NS | Crystallization upon dilution in water ([2]; NPM, 30% DMF): − | Crystallization upon dilution in water ([2]; NPM, 30% DMSO): − | Crystallization upon dilution in water ([2]; NPM, 30% PC): NS | Crystallization upon dilution in water ([2]; NPM, 50% DMF): + | Crystallization upon dilution in water ([2]; NPM, 50% DMSO): + | Crystallization upon dilution in water ([2]; NPM, 50% PC): NS | Crystallization upon dilution in water ([2]; NPM, 95% DMF): + | Crystallization upon dilution in water ([2]; NPM, 95% DMSO): + | Crystallization upon dilution in water ([2]; NPM, 95% EL): NS | Crystallization upon dilution in water ([2]; NPM, 95% PC): NS | Dissolution of active ingredient into Lactic acid dimethyl amide [3]: 14 grams of active ingredient in 100 g solvent
